Assay results taken from US10239839B2, “Compounds and formulations suitable for radical scavenging” (Solenne BV, priority 2006, dated 2019).
Entries after “also recorded” stand apart in the source; their conditions may differ. One block for each molecule: values may come before it.

Key:
[1] = Stability of solutions exposed to light and air; format: physicochemical; details: dissolved in grape seed oil, darker than parent oil, up to a year
Text: For example, it is known in the art that a dilute solution of C60 in toluene exposed to light and air will undergo approximately 10% or more degradation and loss of the C60 due to epoxidation and subsequent breakdown of the fullerene cage resulting from singlet oxygen generated via photoexcitation of the C60. This can be seen even visually since the decomposed C60 forms a blackish product which settles out of solution.

[2] = Percutaneous absorption study; format: in vitro ADME; details: 0.3% (wt.) in grape seed oil
Protocol: [d] A percutaneous absorption study was conducted with 6 fresh viable skin samples from one donor, where 20 times recommended usage level (recommended usage level is 6-8 drops on the face) of a 0.3% (wt.) formulation of HG2-V2 in grape seed oil was used. Analysis by extraction of receptor fluid with toluene and analysis with HPLC-MS (using Buckyprep analytical column) was performed.

[3] = system: erythema; test: Erythemal response to 3×MED full spectrum UV light after occluded patches; format: in vivo, human; details: 0.3% wt. in grape seed oil, 3×MED 24 hours after treatment, 25 subjects
Protocol: [c] 25 human subjects, for which the minimal erythemal dose (MED) of full spectrum UV light (Solar Light Company's 601-300 Multiport Simulator, emitting light of a Xenon-Shortarc Lamp) had been determined, were treated with 6 occluded patches (on the back) with a formulation of HG2-V2 (0.3% wt.) in grape seed oil. 24 hours after patch treatment, the regions of application were exposed to 3×MED of the same light source. […] This provides evidence that the formulation provided an anti-erythemic effect, since erythema scores for 3×MED should range between 1-3.

[4] = UV-Vis absorbance / optical density; format: physicochemical
Protocol: All of these oils show an absorbance (A) at λ=570 nm of A570 less than 0.05 when measuring the neat oil against water, using 1 cm cuvettes as is general practice. The above absorbance profiles were measured by placing the neat oil in the 1 cm path length spectrometer cuvette. […] Olive oil typically has a darker appearance (and is thus more optically dense) than the other oils, and this can be seen in the absorption profile.
In many instances, the concentration of fullerene, fullerene derivative, or fullerene-derived ketolactam desired due to considerations of optimal antioxidant efficacy is higher than can be conveniently measured by standard UV/vis spectroscopy. For concentrated solutions, dilution may be necessary to obtain a proper spectrum in the so-called visible area (λ=400-700 nm). If such concentrated solutions are measured without dilution, A570 may exceed a limit to obtain an accurate measurement, or may even exceed the maximum value that can be measured by the spectrometer. As an example, the spectrum of a concentrated solution of HG2-V2 in grapeseed oil (9.2 mg HG2-V2 dissolved in 3 mL), diluted×10 (v/v) with toluene, is shown in FIG. 8. Here, A570 is 0.24, meaning that without dilution it would give approximately A=2.4. Common UV-Vis spectrometers can usually measure up to A≈5, meaning that for this solution a large part of the spectrum (λ<510 nm) could not have been accurately measured without dilution.
400 mg HG2-V2 was added to 100 g of commercially available liquid grape seed oil and stirred with mechanical stirring for 4 hours at 25 deg. C. The HG2-V2 dissolved to give a clear, dark, amber colored solution of 0.4% (wt.) active in a simple solution. The optical density measured for this solution was over 2 AU/cm, and after 10/1 dilution with toluene was over 0.2.

[5] = Photo-oxidation of adamantylideneadamantane, UV light source; details: compared with α-tocopherol
Protocol: [e] Two beakers were irradiated simultaneously with a UV light source (Philips HB172, fitted with 4 Philips Cleo 15 W luminescent tubes; UV-type 3). Beaker 1 contained a mixture of 301.0 mg of adamantylideneadamantane and 24.9 mg of α-tocopherol (Aldrich, >97%) in 100 mL of chlorobenzene. This solution was placed in a 250 mL beaker, which was wrapped with paper and Al-foil to prevent light going through the side of the beaker. The solution was stirred magnetically and irradiated 7 hours with a UV lamp (Philips HB172, fitted with 4 Philips Cleo 15 W luminescent tubes; UV-type 3), which was mounted horizontally directly above the beakers. The reaction mixture was concentrated in vacuo and the resulting solid material was analyzed by ^1H NMR spectroscopy as described above. […] The ratio of the integrals of unreacted adamantylideneadamantane (at 2.9 ppm) to adamantylideneadamantane peroxide was 90:10.
Beaker 2 contained a mixture of 301.2 mg of adamantylideneadamantane and 25.0 mg of HG2-V2 in 100 mL of chlorobenzene. This solution was placed in a 250 mL beaker, which was wrapped with paper and Al-foil to prevent light going through the side of the beaker. […] The reaction mixture was concentrated in vacuo and the resulting solid material was analyzed by ^1H NMR spectroscopy as described above. […]

[6] = natural sunlight, chlorobenzene
Protocol: [f] Two beakers were irradiated simultaneously by natural sunlight. Beaker 2 contained a solution of 300.5 mg of adad and 17.9 mg of PCBM in 100 mL of chlorobenzene. This solution was placed in a 250 mL beaker, wrapped with paper and Al-foil to prevent light going through the side of the beaker. […] The resulting solution was put in a brown-glass bottle for transport. The solvent was removed in vacuo and the resulting solid material was analyzed by ^1H NMR spectroscopy as described above.
This solution was placed in a 250 mL beaker, wrapped with paper and Al-foil to prevent light going through the side of the beaker. […] The resulting solution was placed in a brown-glass bottle for transport. Approximately 10 mL of the reaction mixture was filtered and put aside. The remaining amount was concentrated in vacuo and the resulting solid material was analyzed by ^1H NMR spectroscopy as described above.
This solution gave an absorbance of A=0.14 at 646 nm (against neat chlorobenzene).

[7] = Tagmatarchis et al.; Hauke et al.; cited from earlier work
[8] = Photo-oxidation of adamantylideneadamantane (ad=ad) to monitor ^1O2 formation, sodium lamp; details: bubbling air
Text: Excited fullerene, triplet+O2→fullerene+singlet oxygen (^1O2) The ^1O2 thus generated can react with a fullerene, giving an oxidized fullerene, or with other molecules that can react with ^1O2. One such molecule is adamantylideneadamantane (ad=ad), which is known to react with ^1O2, giving a stable 1,2-dioxetane, adamantylideneadamantane peroxide, as the product (J. H. Wieringa et al., Tetrahedron Letters 1972, 2, 169). This reaction is depicted in FIG. 11. This oxidation of ad=ad can be used to monitor the formation of ^1O2 by fullerenes or fullerene derivatives.
In a first set of experiments, Phenyl-C61-Butyric-Acid-Methyl-Ester (PCBM,) and HG2-V1 were compared. […] After reaction overnight, the solvent was removed in vacuo and the residual material analyzed by ^1H NMR. […]
In a second set of experiments, the above reaction was done at a high concentration (20 mg/mL) of ad=ad, this time using CCl4 as the solvent. […] Thus, samples from the reaction can be directly analyzed by ^1H NMR, when diluted with, e.g., CDCl3. […]
Samples of 150-200 μL were taken from the reaction and diluted with ˜400 μL of CDCl3. […] Thus, the formation of adamantylideneadamantane peroxide was monitored over time, by following the appearance of the signal at 2.65 ppm. […]

- decomposition on exposure to light and air [1]: reduced amount of decomposition products
- percutaneous absorption ([2]; 20 times recommended usage level, receptor fluid 8 hr and 24 hr): less than 0.004%
- A570 ([4]; 9.2 mg in 3 mL grapeseed oil, diluted ×10 (v/v) with toluene): 0.24
- A570 without dilution ([4]; 9.2 mg in 3 mL grapeseed oil, extrapolated): ~2.4
- optical density ([4]; 0.4% (wt.) in grape seed oil): over 2 AU/cm
- optical density after 10/1 dilution with toluene ([4]; 0.4% (wt.) in grape seed oil): over 0.2
Molecule: 2a-Aza-1,2(2a)-homo-1,9-seco[5,6]fullerene-C60—Ih-1,9-dione,2a-[[4-docosyloxy)-3-methoxyphenyl]methyl] [HG2-V2]
- content in receptor fluid (HPLC-MS) ([2]; 8 hr and 24 hr collection points): no HG2-V2 at or above analytical detection limit
- average erythemic response on the erythema response scale (1 = first sign of erythema) [3]: 0.77
- net generation of ^1O2 under UV irradiation, equal weight percentage [5]: less for HG2-V2 than α-tocopherol

- average optical absorption between 400 nm and 700 nm compared to PCBM [4]: about 10 times
Molecule: CN(C)c1ccc2nc3ccc(=[N+](C)C)cc-3sc2c1 [MB, methylene blue]
- amount of ^1O2 compared to PCBM on an equal absorption and equimolar basis [6]: 25 times
- net generation of ^1O2 compared to PCBM on an equimolar basis [6]: 250 times

Molecule: (C59N)2
- ^1O2 quantum yields (in words) [7]: reduced ^1O2 quantum yields

Molecule: C59NH
- ^1O2 quantum yields (in words) [7]: reduced ^1O2 quantum yields

Molecule: Phenyl-C61-Butyric-Acid-Methyl-Ester [PCBM]
- production of adamantylideneadamantane peroxide over time (ratio of peak at 2.65 ppm and signal at 2.88 ppm of ad=ad) ([8]; CCl4, ad=ad 20 mg/mL, 150 W sodium lamp, equal molarity): much faster
- amount of adamantylideneadamantane peroxide formed (^1H NMR signal at 2.65 ppm) ([8]; chlorobenzene, ad=ad 1.5 mg/mL, 400 W sodium lamp, 16.5-17 h): much larger than that formed when using HG2-V1; also recorded: substantial amount
